Source: the NIST ThermoML archive (doi:10.1016/j.jct.2009.05.009)

Assay: xn = mol fraction of the nth substance listed
Settings: 101.3 kPa, Liquid, Vibrating tube method

CCCC[n+]1ccn(C)c1.O=S(=O)([N-]S(=O)(=O)C(F)(F)F)C(F)(F)F + O
mass density [kg/m3]
Settings | 298.2 K | 323.21 K
x2 = 0 | 1437.1 | 1413.8
x2 = 0.0308 | 1435.7 | –
x2 = 0.0482 | – | 1411.8
x2 = 0.0753 | 1434 | –
x2 = 0.0816 | – | 1410.5
x2 = 0.119 | – | 1408.8
x2 = 0.1194 | 1432.2 | –
x2 = 0.1597 | – | 1407.1
x2 = 0.1731 | 1430 | –
x2 = 0.2141 | – | 1404.5
x2 = 0.2391 | 1426.7 | –
x2 = 0.2583 | – | 1402

CCCC[N+]1(C)CCCC1.O=S(=O)([N-]S(=O)(=O)C(F)(F)F)C(F)(F)F + O
mass density [kg/m3]
Settings | 298.21 K | 323.21 K
x2 = 0 | 1395.3 | 1373.6
x2 = 0.0298 | – | 1372.5
x2 = 0.0435 | 1394 | –
x2 = 0.0654 | 1393.2 | –
x2 = 0.0673 | – | 1371.1
x2 = 0.086 | 1392.3 | –
x2 = 0.0913 | 1392.1 | –
x2 = 0.1012 | – | 1369.9
x2 = 0.1262 | 1390.7 | –
x2 = 0.1396 | 1390.1 | –
x2 = 0.1406 | – | 1368.3
x2 = 0.1909 | 1388.1 | –
x2 = 0.2033 | – | 1365.3
x2 = 0.2228 | 1387.1 | –

CCCC[N+](C)(C)C.O=S(=O)([N-]S(=O)(=O)C(F)(F)F)C(F)(F)F [butyltrimethylammonium bis(trifluoromethylsulfonyl)imide] + O
mass density [kg/m3]
Settings | x2 = 0 | x2 = 0.0387 | x2 = 0.0765 | x2 = 0.1132 | x2 = 0.14 | x2 = 0.189 | x2 = 0.2108 | x2 = 0.2322
293.15 K | 1399.5 | 1398.4 | 1397 | 1395.3 | 1394.1 | 1392.4 | 1391.8 | 1391.2
298.15 K | 1395 | 1393.9 | 1392.5 | 1390.8 | 1389.5 | 1387.8 | 1387.2 | 1386.6
303.15 K | 1390.5 | 1389.4 | 1388 | 1386.3 | 1385 | 1383.2 | 1382.5 | 1381.8
308.15 K | 1386.1 | 1384.9 | 1383.5 | 1381.9 | 1380.6 | 1378.7 | 1377.8 | 1377.1
313.15 K | 1381.6 | 1380.5 | 1379 | 1377.4 | 1376.1 | 1374.1 | 1373.2 | 1372.4
318.15 K | 1377.1 | 1376 | 1374.6 | 1372.9 | 1371.6 | 1369.6 | 1368.7 | 1367.8
323.15 K | 1372.6 | 1371.5 | 1370 | 1368.4 | 1367.1 | 1365.1 | 1364.1 | 1363.2
328.15 K | 1368.2 | 1367 | 1365.5 | 1363.9 | 1362.6 | 1360.5 | 1359.5 | 1358.5
333.15 K | 1363.7 | 1362.4 | 1360.9 | 1359.3 | 1358 | 1355.8 | 1354.8 | 1353.7
338.15 K | 1359.2 | 1357.9 | 1356.3 | 1354.7 | 1353.3 | 1351.1 | 1350 | 1348.7
343.15 K | 1354.8 | 1353.4 | 1351.8 | 1350.2 | 1348.7 | 1346.4 | 1345.1 | 1343.8

CCCCn1cc[n+](C)c1.F[P-](F)(F)(F)(F)F [1-butyl-3-methylimidazolium hexafluorophosphate] + O
mass density [kg/m3]
Settings | x2 = 0 | x2 = 0.0431 | x2 = 0.0982 | x2 = 0.1222 | x2 = 0.1566 | x2 = 0.1873 | x2 = 0.2548 | x2 = 0.2971
298.15 K | 1368.3 | 1366.5 | 1363.5 | 1362.1 | 1360.1 | 1358.5 | 1355.5 | 1354.1
323.15 K | 1347.7 | 1345.6 | 1342.2 | 1340.6 | 1338.5 | 1336.4 | 1332.3 | 1329.9
